Reference: patent US9115092B2, “Substituted quinazoline and pyrido-pyrimidine derivatives” (Asana Biosciences, LLC, priority 2010, dated 2015)

Tests used:
[1] = target: T1, PI3Kα (wild-type), P110/P85α (Homo sapiens, UniProt P42336); assay: PI3 Kinase TR-FRET assay, PI3Kα (wild-type); assay type: biochemical
T1 construct: made in house; host or cells: SF9 insect cells
How it was run: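 Sf9-expressed His-purified P110/P85α (5 ng) preincubated 60 min RT with compound and PIP2 in buffer with 40 mM MgCl2, 5 mM DTT; reaction started with ATP (PIP2 and ATP both 10 μM), 30 min RT. PIP3 detected by TR-FRET displacement, 665/615 nm ratio; IC50 from dose-response curves.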

[2] = system: PC3 cells; assay: XTT assay for cell viability, PC3 cells; assay type: cell-based, human; conditions: Homo sapiens, PC-3, cell viability
How it was run: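 PC3 cells seeded at 1000 cells/well, grown 24 h, then exposed to serial dilutions of compound for 96 h. Viability read by XTT dye at 37° C, absorbance 465 nm. EC50 from sigmoidal dose-response fit.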

[3] = target: PI3 kinase isoform δ (Homo sapiens, UniProt O00329); assay: PI3 Kinase TR-FRET assay, isoform δ; assay type: biochemical; conditions: read-out: inhibition of PI3 kinase isoform δ, IC50
Chain of PI3 kinase isoform δ (O00329 whole entry, the tested form may be a part, canonical isoform): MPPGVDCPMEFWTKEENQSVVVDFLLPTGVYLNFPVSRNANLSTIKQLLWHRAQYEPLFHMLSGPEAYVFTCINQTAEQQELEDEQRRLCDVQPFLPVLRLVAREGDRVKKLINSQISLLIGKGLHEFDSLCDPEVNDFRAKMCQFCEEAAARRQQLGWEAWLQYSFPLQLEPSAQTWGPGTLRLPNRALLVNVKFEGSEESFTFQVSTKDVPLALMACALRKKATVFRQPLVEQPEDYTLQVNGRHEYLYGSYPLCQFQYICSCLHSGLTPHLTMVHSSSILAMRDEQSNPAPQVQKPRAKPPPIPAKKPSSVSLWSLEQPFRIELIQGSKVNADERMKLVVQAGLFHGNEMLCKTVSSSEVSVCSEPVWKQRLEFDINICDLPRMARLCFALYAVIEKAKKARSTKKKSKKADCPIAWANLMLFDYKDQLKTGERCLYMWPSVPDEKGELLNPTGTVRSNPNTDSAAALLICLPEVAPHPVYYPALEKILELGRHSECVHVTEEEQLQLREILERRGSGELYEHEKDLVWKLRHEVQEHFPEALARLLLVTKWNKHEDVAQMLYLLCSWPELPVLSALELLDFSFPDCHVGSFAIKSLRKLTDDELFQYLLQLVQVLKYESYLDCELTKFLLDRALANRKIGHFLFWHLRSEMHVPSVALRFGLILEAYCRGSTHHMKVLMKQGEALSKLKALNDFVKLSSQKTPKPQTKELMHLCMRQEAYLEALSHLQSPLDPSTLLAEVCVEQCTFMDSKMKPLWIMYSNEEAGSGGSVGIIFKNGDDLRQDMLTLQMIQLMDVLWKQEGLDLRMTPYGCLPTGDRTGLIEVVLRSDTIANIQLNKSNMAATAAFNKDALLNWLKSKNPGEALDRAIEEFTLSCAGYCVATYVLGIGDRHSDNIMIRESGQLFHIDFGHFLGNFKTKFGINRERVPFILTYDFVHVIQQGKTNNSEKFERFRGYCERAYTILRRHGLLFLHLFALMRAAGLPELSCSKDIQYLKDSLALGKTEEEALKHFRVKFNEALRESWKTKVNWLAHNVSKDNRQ
Chain of PI3 kinase isoform δ (P27986 whole entry partner, the tested form may be a part, canonical isoform): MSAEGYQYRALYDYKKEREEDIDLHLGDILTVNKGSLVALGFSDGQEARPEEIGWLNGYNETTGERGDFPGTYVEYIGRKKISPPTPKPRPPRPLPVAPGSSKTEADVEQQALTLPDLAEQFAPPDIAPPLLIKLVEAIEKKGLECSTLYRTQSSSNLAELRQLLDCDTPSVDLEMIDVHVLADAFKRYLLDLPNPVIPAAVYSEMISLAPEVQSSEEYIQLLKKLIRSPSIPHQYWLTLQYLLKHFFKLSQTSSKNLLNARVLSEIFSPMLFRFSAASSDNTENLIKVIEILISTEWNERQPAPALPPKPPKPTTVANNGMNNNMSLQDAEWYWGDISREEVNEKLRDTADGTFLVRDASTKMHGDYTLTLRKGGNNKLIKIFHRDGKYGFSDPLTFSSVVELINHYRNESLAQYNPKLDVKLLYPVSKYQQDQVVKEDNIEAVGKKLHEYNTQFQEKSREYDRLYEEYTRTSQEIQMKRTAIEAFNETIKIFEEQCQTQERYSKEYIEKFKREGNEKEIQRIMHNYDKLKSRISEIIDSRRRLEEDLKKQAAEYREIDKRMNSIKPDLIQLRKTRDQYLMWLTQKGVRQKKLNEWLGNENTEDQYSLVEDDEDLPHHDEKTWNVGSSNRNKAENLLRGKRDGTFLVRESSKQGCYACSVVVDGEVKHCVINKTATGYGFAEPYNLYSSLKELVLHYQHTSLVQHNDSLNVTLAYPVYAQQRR
Experimental: (§1) The ability of compounds of the invention to inhibit PI3K activity was determined in a homogeneous TR-FRET assay using a PI3K assay kit (Millipore, USA; cat #33-016) according to manufacturer's instructions. PI3-Kinases (isoforms α, β, γ and δ) catalyze the phosphorylation of phosphatidylinositol, PIP2 to PIP3 in the presence of ATP and Mg^2+. The PIP3 product is detected by displacement of biotin-PIP3 from an energy transfer complex consisting of Europium labeled anti-GST monoclonal antibody, a GST-tagged PH domain, biotinylated PIP3 and Streptavidin-APC. Excitation of Europium in the complex results in an energy transfer to the APC and a fluorescence emission at 665 nm. The PIP3 product displaces biotin-PIP3 from the complex resulting in a loss of energy transfer and thus a decrease in signal.
(§2) To test for the ability of compounds to inhibit the activity of PI3Kα (wild-type), exemplary compounds of formula (I) were dissolved in DMSO and directly distributed into 384-well plates at a volume of 0.5 μL. 14.5 μL of P110/P85α/PIP2 mixture in buffer (obtained from the Millipore kit) containing MgCl2 (40 mM) and DTT (5 mM) was added to compound wells and incubated for 60 min at room temperature. P110/P85α was expressed in SF9 insect cells and purified nickel column extraction. Five ng of wild-type P110/P85α was used in the assay. The kinase reaction was started by the addition of ATP. The assay concentrations of both PIP2 and ATP were 10 μM. The reaction mixture was incubated for 30 min at room temperature and was terminated by the addition of stop mix and detection mix. Fluorescence was measured at 615 and 665 nm upon excitation at 340 nm in a Victor™ V5 fluorometer (Perkin Elmer, USA). The fluorescence emission ratio at 665 to 615 nm, proportional to the kinase activity, was plotted against the compound concentration to generate dose-response curves and IC50 values were determined using GraphPad Prism® 5 software.
(§3) The activity of PI3 kinase isoforms β, γ and δ were assayed in a similar manner to the assay protocol described above for PI3Kα, by substituting the appropriate p110/p85 isoform for the p110α/p85α. Compounds of formula (I) caused inhibition of PI3 kinase isoforms β, γ and δ as determined by these assays. For example, the compounds of examples 3, 51, 54, 111, 113, 115, and 253 each caused inhibition of PI3 kinase isoform β with IC50 values <50 nM. The compounds of examples 104, 133, 146 and 152 each caused inhibition of PI3 kinase isoform β with IC50 values <500 nM. The compounds of examples 3, 51, 54, 104, 111, 113, 115, 133, 253, and 152 each caused inhibition of PI3 kinase isoform γ with IC50 values <500 nM. […] The compounds of examples 2, 3, 51, 54, 111, 113, and 253 each caused inhibition of PI3 kinase isoform […] with IC50 values >1 μM.

[4] = target: T2, mTOR kinase (Homo sapiens, UniProt P42345); assay: mTOR kinase TR-FRET assay; assay type: biochemical; conditions: read-out: mTO R
T2 construct: purchased Millipore, USA
How it was run: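 Compounds preincubated 60 min with mTOR (5 ng) in HEPES pH 7.5, EGTA, MnCl2; ULight-p70 S6K Thr389 peptide (50 nM) and ATP (20 μM) then added, 60 min at room temperature. EDTA-stopped, Eu-anti-phospho antibody detection by TR-FRET (665/615 nm); IC50 from variable-slope sigmoidal fit.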

[5] = system: pS6RP(S235/236), PC3 cells; assay: In-cell Western assay, pS6RP(S235/236) in PC3 cells; assay type: cell-based, human; conditions: Homo sapiens, PC-3, In-cell Western
How it was run: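 Overnight-seeded PC3 cells were treated 2 h with serially diluted compound, then fixed and immunostained with phospho-specific primary antibodies and Eu-labelled secondary. Time-resolved Eu signal read at 615 nm (ex 340 nm), normalised by Hoechst 33258 staining (ex 355/em 460 nm); IC50 from sigmoidal dose-response fit.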

[6] = target: PI3 kinase isoform β (Homo sapiens, UniProt P42338); assay: PI3 Kinase TR-FRET assay, isoform β; assay type: biochemical; conditions: read-out: inhibition of PI3 kinase isoform β, IC50
Chain of PI3 kinase isoform β (P42338 whole entry, canonical isoform): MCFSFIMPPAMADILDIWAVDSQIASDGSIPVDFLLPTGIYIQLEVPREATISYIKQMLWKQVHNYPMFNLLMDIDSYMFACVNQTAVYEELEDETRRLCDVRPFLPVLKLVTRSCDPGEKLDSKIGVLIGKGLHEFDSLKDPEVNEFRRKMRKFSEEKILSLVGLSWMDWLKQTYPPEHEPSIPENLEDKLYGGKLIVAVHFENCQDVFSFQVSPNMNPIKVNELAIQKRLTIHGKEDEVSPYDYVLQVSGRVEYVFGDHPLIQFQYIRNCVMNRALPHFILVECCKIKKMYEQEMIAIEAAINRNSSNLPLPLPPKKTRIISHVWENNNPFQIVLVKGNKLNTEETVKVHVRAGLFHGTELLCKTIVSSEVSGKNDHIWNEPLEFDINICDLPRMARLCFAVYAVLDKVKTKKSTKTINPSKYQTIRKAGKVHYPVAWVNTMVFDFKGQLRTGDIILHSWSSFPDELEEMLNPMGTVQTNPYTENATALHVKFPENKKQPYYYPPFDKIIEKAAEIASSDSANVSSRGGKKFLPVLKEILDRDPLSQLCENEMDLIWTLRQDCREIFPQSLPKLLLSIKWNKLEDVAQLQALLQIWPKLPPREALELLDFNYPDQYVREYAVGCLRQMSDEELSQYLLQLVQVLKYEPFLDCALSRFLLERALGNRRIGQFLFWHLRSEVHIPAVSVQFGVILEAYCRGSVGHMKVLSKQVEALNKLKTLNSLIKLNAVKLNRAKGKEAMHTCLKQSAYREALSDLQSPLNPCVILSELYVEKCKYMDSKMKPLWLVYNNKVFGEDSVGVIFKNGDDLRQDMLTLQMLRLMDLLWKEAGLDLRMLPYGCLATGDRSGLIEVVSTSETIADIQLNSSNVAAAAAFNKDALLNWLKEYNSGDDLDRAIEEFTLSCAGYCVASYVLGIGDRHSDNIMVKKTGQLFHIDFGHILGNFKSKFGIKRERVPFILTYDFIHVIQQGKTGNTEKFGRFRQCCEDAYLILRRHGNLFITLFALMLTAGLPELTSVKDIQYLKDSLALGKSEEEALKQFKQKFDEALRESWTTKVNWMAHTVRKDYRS
Chain of PI3 kinase isoform β (P27986 whole entry partner, canonical isoform): as the sequence (P27986 whole entry partner, the tested form may be a part, canonical isoform) above
Experimental: as §1, §2, §3

[7] = system: pAKT(5473) (phosphorylated at serine 473), PC3 cells; assay: In-cell Western assay, pAKT(5473) in PC3 cells; assay type: cell-based; conditions: Homo sapiens, PC-3, In-cell Western, read-out: pAkt-S473
Experimental: (§4) Cells from human prostate cancer cell line PC3 (American Type Culture Collection (ATCC), Manassas, Va. 20108 USA) were seeded at an optimal density of 22,000 cell/well in 96-well plates containing Ham's F12K medium (90 μL) and incubated overnight. The compound dilutions were carried out in 100% DMSO followed by a dilution in the medium. Test compounds were added in serial dilutions to the wells and incubated for 2 h. The cells were washed and fixed with 4% paraformaldehyde. After incubation at room temperature for 1 h in the dark, blocking was done for 2 h at room temperature. Primary antibodies for phosphorylated (p) AKT(5473) (phosphorylated at serine 473), pAKT(T308) (phosphorylated at threonine 308) and for pS6RP(S235/236) (phosphorylated at serine 235/236) (commercially available from Cell Signaling Technology®, whose protocol was followed for the in-cell western assay, were diluted to the required concentration and added to the corresponding wells followed by overnight incubation at 4° C. Eu-labeled rabbit (PE) (Perkin-Elmer USA catalog #AD0106) secondary antibody was added and incubated for 2 h at room temperature. Delfia® enhancement solution (cat #1244-105, Perkin Elmer USA) was subsequently added to the plate before taking the reading at 615 nm with excitation wavelength of 340 nm, after which 0.5 μg/mL of Hoechst® 33258 dye (Catalog #86140-5, Sigma) was added to the plate and fluorescence emission was read at 460 nm with 355 nm excitation, to evaluate the correction factor. IC50 values were calculated using a sigmoidal dose-response curve fit in GraphPad Prism® v5 software.

[8] = system: pS6RP in PC3 tumor; assay: In vivo PK/PD study, PC3 tumor bearing mice, pS6RP; conditions: Mus musculus, 50 mg/kg po, at 3 and 8 hours
Experimental: PC3 cells were cultured at 37° C. in a 5% CO2 incubator using Hams F12 K medium. Ten million (10^7) cells were injected subcutaneously to the right flank region of athymic male mice (Harlan, age: 6-7 weeks, weight: about 20 g). Tumor bearing mice were randomized when the tumor volume reached about 250 mm^3 and three mice were used per each time point. Test compounds of formula (I) were formulated in 40% HPCD in 1×PBS, pH 7.4 and dosed orally at 50 mg/kg single dose (dose volume−10 mL/kg). Plasma and tumor samples were collected at 0 (vehicle control animals), 1, 4 and 24 hours post dosing. Blood was drawn (retro orbital) to a tube containing 0.2% EDTA for plasma collection. The tumor was excised from the mouse and immediately frozen in liquid nitrogen for PD analysis. Tumor and plasma drug concentrations were measured for PK analysis using LC-MS.
Snap frozen tumor samples were pulverized in a mortar (Belart) containing liquid nitrogen and tumor powder was stored at −80° C. until analysis. Pre coated ELISA kits (Cell Signaling Technology; pAKT(T308), CST#7135; pAKT(5473), CST#7134 and pS6RP, CST#7205) were used for PD analysis. Tumor powder was transferred to Eppendorf® tubes and lysis buffer (1 mL) was added to the powder. Protease and phosphatase inhibitors (SIGMA) and phenylmethanesulfonylfluoride (PMSF) were added to tumor powder and mixed by vortexing followed by sonication (15 sec). Samples were kept on an ice bath for 30 min. Supernatant was separated after centrifugation at 10,000 rpm for 20 min at 4° C. Supernatant was re-centrifuged and fresh supernatant was aliquoted to different tubes. Total protein was estimated using a BCA kit (Thermo Scientific) and 50 μg total protein was loaded to each well. ELISA analysis was carried out as per manufacturer's instructions. The detection for pAKT was based on chemiluminescence and pS6RP was based on absorbance. Qualitative assessments of the suppression of pAKT(T308), pAKT(5473), and pS6RP were also carried out by standard Western blot analyses.
For example, the compound of Example 1, at 50 mg/kg po, caused about 50% inhibition of pAkt(5473) at 1 and 4 hours and >50% inhibition of pS6RP at 1, 4 and 24 hours. Also, the compound of Example 2, at 50 mg/kg po, caused about 25-30% inhibition of pAkt(5473) at 4 and 24 hours and >50% inhibition of pS6RP at 1, 4 and 24 hours. The compound of example 51, at 30 mg/kg po, caused >50% inhibition of pS6RP at 2, 4 and 24 hours. Also, the compounds of examples 133, 146, 147, and 228, at 50 mg/kg po, each caused >50% inhibition of pS6RP at 3 and 8 hours.

[9] = system: pAKT(T308) (phosphorylated at threonine 308), PC3 cells; assay: In-cell Western assay, pAKT(T308) in PC3 cells; assay type: cell-based; conditions: Homo sapiens, PC-3, In-cell Western
Experimental: as §4

T1 sequence (P42336 whole entry): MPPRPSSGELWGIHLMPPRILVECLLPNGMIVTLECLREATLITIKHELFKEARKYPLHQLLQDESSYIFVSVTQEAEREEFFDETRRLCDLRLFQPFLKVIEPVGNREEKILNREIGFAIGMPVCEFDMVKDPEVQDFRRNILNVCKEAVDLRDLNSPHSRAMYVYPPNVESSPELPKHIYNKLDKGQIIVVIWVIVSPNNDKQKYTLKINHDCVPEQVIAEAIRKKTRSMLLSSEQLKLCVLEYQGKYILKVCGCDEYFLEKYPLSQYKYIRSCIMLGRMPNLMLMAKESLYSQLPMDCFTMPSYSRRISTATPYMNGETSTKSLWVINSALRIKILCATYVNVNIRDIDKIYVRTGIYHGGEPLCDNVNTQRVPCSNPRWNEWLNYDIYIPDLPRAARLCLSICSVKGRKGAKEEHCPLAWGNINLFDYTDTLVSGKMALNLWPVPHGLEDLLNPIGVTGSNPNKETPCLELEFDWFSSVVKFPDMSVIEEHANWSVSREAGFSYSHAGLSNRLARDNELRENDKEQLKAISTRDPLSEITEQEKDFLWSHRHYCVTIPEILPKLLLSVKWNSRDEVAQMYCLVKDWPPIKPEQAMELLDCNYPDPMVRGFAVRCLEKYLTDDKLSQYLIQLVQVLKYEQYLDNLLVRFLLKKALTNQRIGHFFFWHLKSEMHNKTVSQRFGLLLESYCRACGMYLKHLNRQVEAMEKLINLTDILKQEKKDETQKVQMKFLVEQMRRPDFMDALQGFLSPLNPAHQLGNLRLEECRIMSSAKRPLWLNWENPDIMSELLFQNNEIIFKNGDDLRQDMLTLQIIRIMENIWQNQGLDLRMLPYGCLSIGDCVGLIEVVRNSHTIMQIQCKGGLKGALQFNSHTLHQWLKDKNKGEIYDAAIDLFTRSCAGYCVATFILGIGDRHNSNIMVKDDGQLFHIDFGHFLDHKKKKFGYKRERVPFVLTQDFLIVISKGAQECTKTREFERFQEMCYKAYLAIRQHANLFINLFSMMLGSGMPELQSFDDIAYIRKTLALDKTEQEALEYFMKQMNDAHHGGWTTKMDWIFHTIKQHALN
T1 sequence (P27986 whole entry partner): as the sequence (P27986 whole entry partner, the tested form may be a part, canonical isoform) above

| IC50 [1] [nM] | IC50 [2] [nM] | IC50 [3] [nM] | IC50 [4] [nM] | IC50 [5] [nM] | IC50 [6] [nM] | IC50 [7] [nM] | IC50 [9] [nM] | Compound | inhibition at 50 mg/kg [8] [%] |
| --- | --- | --- | --- | --- | --- | --- | --- | --- | --- |
| < 50 | 100 to 500 | > 1000 | 50 to 200 |  |  |  |  | CN(C)C(=O)c1ccc(NC(=O)Nc2ccc(-c3nc(N4CCOCC4)c4ccc(-c5cccc(S(C)(=O)=O)c5)cc4n3)cn2)cc1 [Example 3] |  |
| < 50 | 100 to 500 | > 1000 | 50 to 200 |  |  |  |  | CN(C)C(=O)c1ccc(NC(=O)Nc2ccc(-c3nc(N4CCOCC4)c4ccc(-c5cccnc5F)cc4n3)cn2)cc1 [Example 54, 4-(3-{5-[7-(2-fluoro-pyridin-3-yl)-4-morpholin-4-yl-quinazolin-2-yl]-pyridin-2-yl}-ureido)-N,N-dimethyl-benzamide] |  |
| < 50 | 201 to 10000 |  | < 50 | 201 to 10000 | < 500 | < 100 |  | CN(C)C(=O)c1ccc(NC(=O)Nc2ccc(-c3nc(N4CCOCC4)c4ncc(-c5cccc(S(C)(=O)=O)c5)cc4n3)cc2F)cc1 [Example 104, 4-(3-(2-fluoro-4-(7-(3-(methylsulfonyl)phenyl)-4-morpholino-pyrido[3,2-d]pyrimidin-2-yl)phenyl)ureido)-N,N-dimethyl-benzamide] |  |
| < 50 | 201 to 10000 | > 1000 | < 50 | 201 to 10000 |  | 201 to 10000 |  | CN(C)C(=O)c1ccc(NC(=O)Nc2ccc(-c3nc(N4CCOCC4)c4ncc(-c5cccnc5F)cc4n3)cn2)cc1 [Example 111, 4-(3-(5-(7-(2-fluoropyridin-3-yl)-4-morpholino-pyrido[3,2-d]pyrimidin-2-yl)pyridin-2-yl)ureido)-N,N-dimethyl-benzamide] |  |
| < 50 | 201 to 10000 | > 1000 | 50 to 200 | < 100 |  | < 100 |  | CN(C)C(=O)c1ccc(NC(=O)Nc2ccc(-c3nc(N4CCOCC4)c4cc(F)c(-c5cnn(C)c5)cc4n3)cn2)cc1 [Example 113, 4-(3-(5-(6-fluoro-7-(1-methyl-1H-pyrazol-4-yl)-4-morpholino-quinazolin-2-yl)pyridin-2-yl)ureido)-N,N-dimethyl-benzamide] |  |
| 50 to 200 |  |  | < 50 |  |  | < 100 | 201 to 10000 | COc1ncc(-c2ccc3c(N4CCOCC4)nc(-c4ccc(NC(=O)Nc5ccc(C(=O)N(C)C)cc5F)cc4)nc3c2)cn1 [Example 147, 3-fluoro-4-(3-(4-(7-(2-methoxypyrimidin-5-yl)-4-morpholino-quinazolin-2-yl)phenyl)ureido)-N,N-dimethyl-benzamide] | > 50 |
| < 50 |  |  | < 50 |  |  | 501 to 5000 |  | CN(C)C(=O)c1ccc(NC(=O)Nc2ccc(-c3nc(N4CCOCC4)c4ccc(-c5ccc(CO)o5)cc4n3)cc2)c(F)c1 [Example 228, 3-fluoro-4-(3-(4-(7-(5-(hydroxymethyl)furan-2-yl)-4-morpholino-quinazolin-2-yl)phenyl)ureido)-N,N-dimethyl-benzamide] | > 50 |
| < 50 |  | > 1000 | 201 to 10000 |  |  | < 100 |  | CN(C)C(=O)c1ccc(NC(=O)Nc2ccc(-c3nc(N4CCOCC4)c4ccc(-c5cccc(S(C)(=O)=O)c5)cc4n3)cn2)cc1F [Example 253, 2-fluoro-N,N-dimethyl-4-(3-(5-(7-(3-(methylsulfonyl)phenyl)-4-morpholino-quinazolin-2-yl)pyridin-2-yl)ureido)-benzamide] |  |
